# Assay results from patent publication EP0943615A1, “1,4-DIHYDROPYRIDINE DERIVATIVES” (Nikken Chemicals Company, Limited, priority 1996, dated 1998).
# Where “and” joins values, the source holds several entries; their conditions need not be identical. Equal values may be shown once. Read-outs that look alike come from different tables or passages of the source.
# Legend:
# VJ-300 cells [1] = assay: In vitro test of action suppressing proliferation of cancer cells, combined administration of doxorubicin (colony formation), resistant cells; assay type: cell-based, Human; settings: ADM alone or ADM + test compound 1 µg/ml, LD50 of ADM relative to ADM alone in KB cells = 1, 7 days incubation, colony count
# Method: (§1) Human rhinopharynx cancer derived KB cells (i.e., sensitive cells) and their multi-drug resistant clone VJ-300 cells (i.e., resistant cells) were used as the test cells. As the incubation solutions, use was made of 10% fetal calf serum (Flow Laboratories) and Eagle MEM medium (Nissui Seiyaku) containing 0.292 mg/ml of L-glutamine (Flow Laboratories). The tests of the action for overcoming resistance to anti-cancer drugs or action for increasing the effect of the anti-cancer drug with the combined administration of the anti-cancer drug doxorubicin (i.e., adriamycin, ADM) and the test compound were performed as follows:
# The test cells were suspended in incubation solutions and adjusted to a cell density of about 200 cells/ml. The cell suspensions were injected in 2 ml amounts into petri dishes and were incubated in a CO2 gas incubator (5% CO2, 95% air) at 37°C for 24 hours. Then, 5 µl of a predetermined concentration of the aqueous ADM solution and a predetermined concentration of a DMSO solution of the test compound were added, then the incubation was continued for a further 7 days. After the end of the incubation, the result was immobilized with methanol, Giemsa stained and measured for the number of colonies per dish. The results were used to prepare a volume-reaction curve. […] The results are shown in Table 8 to Table 10 using the concentration of LD50 of ADM in the ADM alone group by KB cells as the resistance degree 1 and calculating the resistances of the following LD50 concentrations as relative ratios. […]
# [2] = tested on: VCR resistant murine leukemia (P388/VCR) cells; assay: In vivo test: overcoming resistance to vincristine in VCR resistant murine leukemia cell bearing mice; parameters: species or system CDF1 male mice; settings: P388/VCR bearing CDF1 mice, VCR 100 µg/kg alone or with compound 100 mg/kg, intraperitoneally for 5 days; for Effect of overcoming resistance T/V (%): T/C of combination over T/C of VCR alone x 100; for Rate of prolongation of life T/C (%): with respect to controls
# Method: 10^6 VCR resistant murine leukemia (P388/VCR) cells were transplanted intraperitoneally into groups of six CDF1 male mice, then the compound of the present invention (100 mg/kg) and VCR (100 µg/kg) were administered intraperitoneally for 5 days. […] Effect of overcoming resistance to anti-cancer drug (T/V) % = [(Rate of prolongation of life using VCR and present compound (T/C))/(Rate of prolongation of life using VCR alone (T/C))] x 100 [formula]
# Acute toxicity test = settings: mouse, in vivo, ip; ddY male mice, intraperitoneally, suspended in 0.5% CMC-Na with 0.1% Tween 80, observed up until 7 days
# Method: • Animals used: ddY male mice (SLC Japan), 4-5 weeks old, three to five mice per group. • Test method: The compound of the present invention was suspended in 0.5% sodium carboxymethylcellulose (CMC-Na) containing 0.1% Tween 80. It was administered to the mice intraperitoneally in amounts from 1000 mg/kg to 250 mg/kg in groups of three to five mice until no more deaths were observed. The survival of the animals was observed up until 7 days after administration.
# VJ-300 cells [3] = assay: In vitro test of action suppressing proliferation of cancer cells, combined administration of vincristine, resistant cells; assay type: cell-based, Human; settings: VCR alone or VCR + test compound 1 µg/ml, LD50 of VCR relative to VCR alone in KB cells = 1
# Method: as §1, with “As” for “Human rhinopharynx cancer derived KB cells (i.e., sensitive cells) and their multi-drug resistant clone VJ-300 cells (i.e., resistant cells) were used as the test cells. As”
# The test cells were suspended in incubation solutions and adjusted to a cell density of about 200 cells/ml. The cell suspensions were injected in 2 ml amounts into petri dishes and were incubated in a CO2 gas incubator (5% CO2, 95% air) at 37°C for 24 hours. Then, 5 µl of a predetermined concentration of the aqueous ADM solution and a predetermined concentration of a DMSO solution of the test compound were added, then the incubation was continued for a further 7 days. After the end of the incubation, the result was immobilized with methanol, Giemsa stained and measured for the number of colonies per dish. The results were used to prepare a volume-reaction curve. […] The results are shown in Table 8 to Table 10 using the concentration of LD50 of ADM in the ADM alone group by KB cells as the resistance degree 1 and calculating the resistances of the following LD50 concentrations as relative ratios.
# The same method as in Test Example 1 was used to test the action of vincristine (VCR) on anti-cancer drugs, prepare a volume-reaction curve, and calculate the resistances.
# [4] = tested on: thoracic aorta of the rat; assay: Action easing KCl contraction in rat arteries (aortic ring, Magnus tube); settings: read-out: IC50 value (x 10^-6 M)
# [5] = 50% inhibitory concentration of hyperpotassium contraction, 50mM potassium chloride, rat thoracic aorta ring, cumulative addition
compound,measurement,setting,value
"CCOC(=O)C1=C(c2ccc(-n3c(C)nc4ncccc43)cc2)NC(C)=C(C(=O)OCCCc2cccnc2)C1C(C)C (stereo not shown) [Compound 1, 4-isopropyl-6-methyl-2-[4-(2-methylimidazo[4,5-b]pyridin-1-yl)phenyl]-1,4-dihydropyridin-3,5-dicarboxylate 3-ethylester, 5-[3-(3-pyridyl)propyl]ester]",Degree of resistance for ADM VJ-300,VJ-300 cells [1],2.4
same,Average days of survival,[2],12.8
same,Effect of overcoming resistance T/V (%),[2],113%
same,Rate of prolongation of life T/C (%),[2],108%
same,LD50 at 168 h,Acute toxicity test,> 1000 mg/kg
"CCOC(=O)C1=C(c2ccc(-n3c(C)nc4cnccc43)cc2)NC(C)=C(C(=O)OCCCc2cccnc2)C1C(C)C (stereo not shown) [Compound 2, 4-isopronyl-6-methyl-2-[4-(2-methylimidazo[4,5-c]pyridin-1-yl)phenyl]-1,4-dihydronyridin-3,5-dicarboxylate 3-ethylester, 5-[3-(3-pyridyl)propyl]ester]",Degree of resistance for ADM VJ-300,VJ-300 cells [1],2.7
same,Degree of resistance for VCR VJ-300,VJ-300 cells [3],9.6
same,IC50,[4]; [5],> 30000 nM
same,LD50 at 168 h,Acute toxicity test,> 1000 mg/kg
"CCCCCC1C(C(=O)OCCCc2cccnc2)=C(C)NC(c2ccc(-n3c(C)nc4ncccc43)cc2)=C1C(=O)OCC (stereo not shown) [Compound 3, 6-methyl-2-[4-(2-methylimidazo[4,5-b]pyridin-1-yl)phenyl]-4-pentyl-1,4-dihydropyridin-3,5-dicarboxylate 3-ethylester, 5-[3-(3-pyridyl)propyl]ester]",Degree of resistance for ADM VJ-300,VJ-300 cells [1],1.2
same,Degree of resistance for VCR VJ-300,VJ-300 cells [3],7.1
same,Average days of survival,[2],15.0
same,Effect of overcoming resistance T/V (%),[2],133%
same,Rate of prolongation of life T/C (%),[2],127%
"CCCCCC1C(C(=O)OCCCc2cccnc2)=C(C)NC(c2ccccc2)=C1C(=O)OCC (stereo not shown) [Compound 15, 6-methyl-4-pentyl-2-phenyl-1,4-dihydropyridin-3,5-dicarboxylate 3-ethylester, 5-[3-(3-pyridyl)propyl]ester]",Degree of resistance for ADM VJ-300,VJ-300 cells [1],3.2
same,Degree of resistance for VCR VJ-300,VJ-300 cells [3],6.5
same,Average days of survival,[2],15.7
same,Effect of overcoming resistance T/V (%),[2],128%
same,Rate of prolongation of life T/C (%),[2],139%
"CCCCCC1C(C(=O)OCCCc2cccnc2)=C(C)NC(c2cccnc2)=C1C(=O)OCC (stereo not shown) [Compound 16, 6-methyl-4-pentyl-2-(3-pyridyl)-1,4-dihydropyridin-3,5-dicarboxylate 3-ethylester, 5-[3-(3-pyridyl)propyl]ester]",Degree of resistance for ADM VJ-300,VJ-300 cells [1],3.0
same,Average days of survival,[2],16.2
same,Effect of overcoming resistance T/V (%),[2],143%
same,Rate of prolongation of life T/C (%),[2],137%
same,LD50 at 168 h,Acute toxicity test,> 1000 mg/kg
"CCCCCC1C(C(=O)OC/C=C/c2cccnc2)=C(C)NC(c2ccc(-n3c(C)nc4cnccc43)cc2)=C1C(=O)OCC (stereo not shown) [Compound 23, 6-methyl-2-[4-(2-methylimidazo[4,5-c]pyridin-1-yl)phenyl]-4-pentyl-1,4-dihydropyridin-3,5-dicarboxylate 3-ethylester, 5-[(E)-3-(3-pyridyl)-2-propenyl]ester]",Degree of resistance for ADM VJ-300,VJ-300 cells [1],1.2
same,Average days of survival,[2],13.5
same,Effect of overcoming resistance T/V (%),[2],138%
same,Rate of prolongation of life T/C (%),[2],142%
same,LD50 at 168 h,Acute toxicity test,> 1000 mg/kg
"CCOC(=O)C1=C(c2ccc(-n3c(C)nc4cnccc43)cc2)NC(C)=C(C(=O)OC/C=C/c2cccnc2)C1CCc1ccccc1 (stereo not shown) [Compound 24, 6-methyl-2-[4-(2-methylimidazo[4,5-c]pyridin-1-yl)phenyl]-4-(2-phenyl)ethyl-1,4-dihydropyridin-3,5-dicarboxylate 3-ethylester, 5-[(E)-3-(3-pyridyl)-2-propenyl]ester]",Degree of resistance for ADM VJ-300,VJ-300 cells [1],1.1
same,Average days of survival,[2],13.3
same,Effect of overcoming resistance T/V (%),[2],136%
same,Rate of prolongation of life T/C (%),[2],140%
same,LD50 at 168 h,Acute toxicity test,> 1000 mg/kg
COC(=O)C1=C(C)NC(C)=C(C(=O)OCCN(C)Cc2ccccc2)C1c1cccc([N+](=O)[O-])c1 (stereo not shown) [Nicardipine],IC50,[4]; [5],260 nM
"CC[C@]1(O)C[C@H]2CN(CCc3c([nH]c4ccccc34)[C@@](C(=O)OC)(c3cc4c(cc3OC)N(C=O)[C@H]3[C@@](O)(C(=O)OC)[C@H](OC(C)=O)[C@]5(CC)C=CCN6CC[C@]43[C@@H]65)C2)C1 [VCR, vincristine, reference compound]",Degree of resistance for VCR VJ-300,VJ-300 cells [3],483 - 952
same,Average days of survival,[2]; 100 mg/kg,11.3 and 9.8 and 12.3
same,Effect of overcoming resistance T/V (%),[2],100%
same,Rate of prolongation of life T/C (%),[2]; 100 mg/kg,96% and 103% and 109%
COc1ccc(CCN(C)CCCC(C#N)(c2ccc(OC)c(OC)c2)C(C)C)cc1OC (stereo not shown) [Verapamil],IC50,[4]; Rattus norvegicus,1430 nM
